Measured values reported in patent US20230157350A1, “DELIVERY SYSTEMS AND METHODS OF MAKING THE SAME” (British American Tobacco (Investments) Limited, priority 2020, published 2023).
Each block holds one compound with its values, some of them ahead of it.

Columns and labels:
[1] = Smoking sensory evaluation of cigarettes by testers (1 to 10 scale, N=28); type: in vivo; details: smoked cigarette
Protocol: Test cigarettes were produced using the following amounts of WS-3 applied to the aerosol-generating material in the tobacco rod in the form of a solution:
Various cigarettes were prepared and smoked so that the (1) menthol-family flavor intensity; (2) cooling sensation; and (3) tobacco taste intensity could each be evaluated by testers on a 1 to 10 scale (N=28).

[2] = Sniffing Analysis of uncombusted tobacco, Quantitative Descriptive Profiling (ISO 13299)
Protocol: Further samples were analyzed using “Sniffing Analysis”, an applied sensory method for the assessment of characterizing flavors of standard products, by sniffing the tobacco itself, without combusting it, using a method as provided in the international standard ISO 13299. The data is set out in Tables 4 and 5, showing the results of Quantitative Descriptive Profiling (QDP), providing a score of between 0 and 5 for perception of the different tobacco typical and non-tobacco typical flavor notes
A critical intensity of a Mean >1.0 is highlighted in bold in Tables 4 and 5. On the 0-5 category scale, none of the prototype cigarette of “W53” or “WS23” show any critical intensity above 1.0 for the Non-Tobacco Typical Flavor Notes (see Table 5).

[3] = Stability and migration in the delivery system; type: physicochemical
From the text: The menthol in a pack of mentholated cigarettes, for example, is contained by an outer plastic packaging film. Within this packaging film, the menthol migrates and equilibrates. However, once this outer packaging film is removed (upon opening the pack for the first time), the menthol will begin to be lost. This migration and loss of the volatile menthol needs to be factored in when deciding how much menthol to include in each delivery system and where to apply it. It also means that the menthol delivery may vary depending on where the menthol is located when the delivery system is used.
This means that greater significance is attached to the amount of WS-3 incorporated into the delivery system, as well as where and how it is incorporated.
In some embodiments, the cooling agent WS-3 is present in the aerosol-generating material. In some embodiments, the cooling agent WS-3 is applied to the aerosol-generating material. As the delivery system is used, the WS-3 is volatilized and is entrained in the aerosol flow through the delivery system. […] This is despite the high temperatures seen in the rods of aerosol-generating material in combustible aerosol provision system, such as cigarettes. This is also despite the relatively low volatility of the WS-3 compared to some cooling agents used in delivery systems, such as menthol.

Solubility in solvents = type: physicochemical
[4] = Smoking sensory evaluation of cigarettes by testers (1 to 10 scale, N=28); type: in vivo; details: 1 mg

Migration within the delivery system or packaging during storage [3]: highly volatile and migrates
SMILES: CC1CCC(C(C)C)C(O)C1 (stereo not drawn) [Menthol]
Cooling Sensation ([1]; 1.5 mg menthol (low)): 4.8
Menthol-Family Flavor Intensity ([1]; 1.5 mg menthol (low)): 4.1
Tobacco Taste Intensity ([1]; 1.5 mg menthol (low)): 3.1
Cooling Sensation ([1]; 3.5 mg menthol (medium)): 7.6
Menthol-Family Flavor Intensity ([1]; 3.5 mg menthol (medium)): 7.0
Tobacco Taste Intensity ([1]; 3.5 mg menthol (medium)): 2.1
Cooling Sensation ([1]; 5.0 mg menthol (high)): 8.8
Menthol-Family Flavor Intensity ([1]; 5.0 mg menthol (high)): 8.0
Tobacco Taste Intensity ([1]; 5.0 mg menthol (high)): 1.4
Non-Tobacco Typical Flavor Note: Alcoholic ([2]; 4 mg, score 0-5): .1
Non-Tobacco Typical Flavor Note: Cacao ([2]; 4 mg, score 0-5): .0
Non-Tobacco Typical Flavor Note: Caramel ([2]; 4 mg, score 0-5): .1
Non-Tobacco Typical Flavor Note: Citrus ([2]; 4 mg, score 0-5): .0
Non-Tobacco Typical Flavor Note: Floral ([2]; 4 mg, score 0-5): .0
Non-Tobacco Typical Flavor Note: Fruity ([2]; 4 mg, score 0-5): .0
Non-Tobacco Typical Flavor Note: Honey ([2]; 4 mg, score 0-5): .1
Non-Tobacco Typical Flavor Note: Licorice ([2]; 4 mg, score 0-5): .0
Non-Tobacco Typical Flavor Note: Minty ([2]; 4 mg, score 0-5): .9
Non-Tobacco Typical Flavor Note: Spicy ([2]; 4 mg, score 0-5): .0
Non-Tobacco Typical Flavor Note: Vanilla ([2]; 4 mg, score 0-5): .1
Tobacco Typical Flavor Note: Animalic ([2]; 4 mg, score 0-5): 0.0
Tobacco Typical Flavor Note: Black Tea ([2]; 4 mg, score 0-5): 0.0
Tobacco Typical Flavor Note: Earthy ([2]; 4 mg, score 0-5): 0.0
Tobacco Typical Flavor Note: Haylike ([2]; 4 mg, score 0-5): 0.0
Tobacco Typical Flavor Note: Roasted ([2]; 4 mg, score 0-5): 0.1
Tobacco Typical Flavor Note: Smoky ([2]; 4 mg, score 0-5): 0.0
Tobacco Typical Flavor Note: Tobacco ([2]; 4 mg, score 0-5): 0.6
Tobacco Typical Flavor Note: Woody ([2]; 4 mg, score 0-5): 0.1
Non-Tobacco Typical Flavor Note: Minty ([2]; 4 mg, score 0-5, listed as menthol): 4.9

Solubility (Solubility in solvents; alcohol, such as ethanol, and DMSO): readily soluble
Migration within the delivery system or packaging during storage [3]: does not migrate
SMILES: CCNC(=O)C1CC(C)CCC1C(C)C (stereo not drawn) [WS-3, N-ethyl-2-(isopropyl)-5-methylcyclohexane carboxamide]
Cooling Sensation ([1]; 1.0 mg cooling agent): significant higher than both control products
Non-Tobacco Typical Flavor Note: Alcoholic ([2]; 1 mg, score 0-5): .0
Non-Tobacco Typical Flavor Note: Cacao ([2]; 1 mg, score 0-5): .2
Non-Tobacco Typical Flavor Note: Caramel ([2]; 1 mg, score 0-5): .1
Non-Tobacco Typical Flavor Note: Citrus ([2]; 1 mg, score 0-5): .0
Non-Tobacco Typical Flavor Note: Floral ([2]; 1 mg, score 0-5): .0
Non-Tobacco Typical Flavor Note: Fruity ([2]; 1 mg, score 0-5): .1
Non-Tobacco Typical Flavor Note: Honey ([2]; 1 mg, score 0-5): .1
Non-Tobacco Typical Flavor Note: Licorice ([2]; 1 mg, score 0-5): .0
Non-Tobacco Typical Flavor Note: Minty ([2]; 1 mg, score 0-5): .0
Non-Tobacco Typical Flavor Note: Spicy ([2]; 1 mg, score 0-5): .1
Non-Tobacco Typical Flavor Note: Vanilla ([2]; 1 mg, score 0-5): .3
Tobacco Typical Flavor Note: Animalic ([2]; 1 mg, score 0-5): 0.1
Tobacco Typical Flavor Note: Black Tea ([2]; 1 mg, score 0-5): 0.0
Tobacco Typical Flavor Note: Earthy ([2]; 1 mg, score 0-5): 0.3
Tobacco Typical Flavor Note: Haylike ([2]; 1 mg, score 0-5): 1.1
Tobacco Typical Flavor Note: Roasted ([2]; 1 mg, score 0-5): 0.7
Tobacco Typical Flavor Note: Smoky ([2]; 1 mg, score 0-5): 0.0
Tobacco Typical Flavor Note: Tobacco ([2]; 1 mg, score 0-5): 3.9
Tobacco Typical Flavor Note: Woody ([2]; 1 mg, score 0-5): 1.3
Solubility in solvents versus humectants (Solubility in solvents; alcohol or DMSO versus propylene glycol): higher in the solvents than in humectants such as propylene glycol
Stability in the aerosol ([3]; high temperatures in rods of combustible aerosol provision systems): stable molecule and is not transformed and does not react with other chemicals in the aerosol
Overall flavor conclusion of smoking and sniffing analysis [4]: provides a cooling sensation without menthol flavor

SMILES: CNC(=O)C(C)(C(C)C)C(C)C [WS-23]
Menthol-Family Flavor Intensity ([1]; 1.0 mg cooling agent): 2.2
Tobacco Taste Intensity ([1]; 1.0 mg cooling agent): 3.9
Non-Tobacco Typical Flavor Note: Alcoholic ([2]; 1 mg, score 0-5): .0
Non-Tobacco Typical Flavor Note: Cacao ([2]; 1 mg, score 0-5): .1
Non-Tobacco Typical Flavor Note: Caramel ([2]; 1 mg, score 0-5): .1
Non-Tobacco Typical Flavor Note: Citrus ([2]; 1 mg, score 0-5): .2
Non-Tobacco Typical Flavor Note: Floral ([2]; 1 mg, score 0-5): .1
Non-Tobacco Typical Flavor Note: Fruity ([2]; 1 mg, score 0-5): .2
Non-Tobacco Typical Flavor Note: Honey ([2]; 1 mg, score 0-5): .1
Non-Tobacco Typical Flavor Note: Licorice ([2]; 1 mg, score 0-5): .0
Non-Tobacco Typical Flavor Note: Minty ([2]; 1 mg, score 0-5): .7
Non-Tobacco Typical Flavor Note: Spicy ([2]; 1 mg, score 0-5): .0
Non-Tobacco Typical Flavor Note: Vanilla ([2]; 1 mg, score 0-5): .3
Tobacco Typical Flavor Note: Animalic ([2]; 1 mg, score 0-5): 0.1
Tobacco Typical Flavor Note: Black Tea ([2]; 1 mg, score 0-5): 0.1
Tobacco Typical Flavor Note: Earthy ([2]; 1 mg, score 0-5): 0.3
Tobacco Typical Flavor Note: Haylike ([2]; 1 mg, score 0-5): 0.9
Tobacco Typical Flavor Note: Roasted ([2]; 1 mg, score 0-5): 0.7
Tobacco Typical Flavor Note: Smoky ([2]; 1 mg, score 0-5): 0.1
Tobacco Typical Flavor Note: Tobacco ([2]; 1 mg, score 0-5): 3.5
Tobacco Typical Flavor Note: Woody ([2]; 1 mg, score 0-5): 1.0
Non-Tobacco Typical Flavor Note: Minty ([2]; 1 mg, score 0-5, listed as WS23): 0.7
Overall flavor conclusion of smoking and sniffing analysis [4]: very low, but detectable minty/menthol flavor
